Like-named read-outs stand apart in the source and are kept apart here.
What was measured:
clinical [1] = conditions: human, in vivo
Description: Patients were asked to determine the time of drug intake. The collected serum and whole peripheral blood samples were stored at − 80 °C until analysis.
Several candidate PopPK models with different structures were compared based on the goodness-of-fit (GOF) plots and the objective function value (OFV) expressed as minus twice log likelihood (−2LL), and the difference in OFV between the two nested models was statistically evaluated using the chi-square test (the decrease in −2LL >3.84, p < 0.05, was considered statistically significant).
Stepwise covariate analysis was performed to evaluate the effect of covariates on clearance and volume of distribution. The significance of the effect was assessed by the −2LL value; decrease in −2LL of >3.84 (p < 0.050) for the forward addition was considered significant. The impact of body weight (BW), albumin (ALB), age (AGE), sex, aspartate aminotransferase (AST), and alanine aminotransferase (ALT) levels on CLparent/F, CLm5/F, and CLm7/F was evaluated. In addition, BW, ALB, AGE, and sex were evaluated on Vparent/F, Vm5/F, and Vm7/F. The covariates were modeled as shown in equation (c) in the power form for continuous covariates, equation (d) with log-transformation for continuous covariates with outliers, and equation (e) for categorical covariates: […]
The candidate PopPK models were evaluated by goodness of fit, ∆−2LL values, η-shrinkage, and relative standard error (RSE%). […] The uncertainty of the parameters was estimated by performing a bootstrap. The original dataset was randomly resampled to generate 1000 samples, and the parameters estimated from the successful runs were compared to those estimated from the original dataset.

[2] = human, in vivo
Description: This prospective, longitudinal observational study was designed and conducted at the Ageo Central General Hospital from February 2019 to July 2020 and Keio University Hospital from June 2020 to April 2022. The primary endpoint was the association of exposures to osimertinib, AZ5104, AZ7550, or germline polymorphisms with AE severity. […] Patients who were mentally or physically incapable of providing informed consent were excluded from the study. […] The study was conducted with adherence to the Declaration of Helsinki.

[3] = cited from earlier work
[4] = cited from earlier work; remark: listed apart in the source
clinical [5] = conditions: human, in vivo; remark: listed apart in the source
[6] = Osimertinib AUC0-24 <4938 ng/mL*h, n = 29, any grade
[7] = Osimertinib AUC0-24 <4938 ng/mL*h, n = 29, grade ≥2
[8] = Osimertinib AUC0-24 ≥4938 ng/mL*h, n = 22, any grade
[9] = Osimertinib AUC0-24 ≥4938 ng/mL*h, n = 22, grade ≥2

## C=CC(=O)Nc1cc(Nc2nccc(-c3cn(C)c4ccccc34)n2)c(OC)cc1N(C)CCN(C)C [osimertinib]
Clinical [1]
  Clearance CL/F (θ1, θ4, θ6): 17.37 L/h
  Coefficient of variation for clearance (CL/F): 30%
  Volume of distribution V/F (θ2, θ5, θ7): 1386 L
Clinical [1]; Volume of distribution V/F (θ2, θ5, θ7)
  Vd/F: 1270 L
[2]
  Association of EGFR-TKI treatment line with severe AEs: higher frequency of severe AEs in patients receiving therapy as first-line treatment
  Severe liver dysfunction within the observation period: No patient
[2]; 3 months
  Patients who experienced severe AEs (grade 3 or leading to dose discontinuation): Approximately 25%
  Patients with grade ≥ 2 skin disorders (most prevalent grade ≥ 2 AE): 63%
  Patients with interstitial lung disease leading to treatment discontinuation: 2.0%
Mann–Whitney U test
  Association between AUC0–24 and grade ≥ 2 increased creatinine: significant association
[6]
  Anorexia, % of patients: (10.3) %
  Anorexia, No. of patients: 3
  Any adverse events, % of patients: (100.0) %
  Any adverse events, No. of patients: 29
  Creatinine increased, % of patients: (44.8) %
  Creatinine increased, No. of patients: 13
  Diarrhea, % of patients: (58.6) %
  Diarrhea, No. of patients: 17
  Interstitial lung disease, % of patients: (0.0) %
  Interstitial lung disease, No. of patients: 0
  Paronychia, % of patients: (37.9) %
  Paronychia, No. of patients: 11
[7]
  Anorexia, % of patients: (6.90) %
  Anorexia, No. of patients: 2
  Any adverse events, % of patients: (69.0) %
  Any adverse events, No. of patients: 20
  Creatinine increased, % of patients: (0.0) %
  Creatinine increased, No. of patients: 0
  Diarrhea, % of patients: (0.0) %
  Diarrhea, No. of patients: 0
  Interstitial lung disease, % of patients: (0.0) %
  Interstitial lung disease, No. of patients: 0
  Paronychia, % of patients: (27.6) %
  Paronychia, No. of patients: 8
[8]
  Anorexia, % of patients: (18.2) %
  Anorexia, No. of patients: 4
  Any adverse events, % of patients: (100.0) %
  Any adverse events, No. of patients: 22
  Creatinine increased, % of patients: (50.0) %
  Creatinine increased, No. of patients: 11
  Diarrhea, % of patients: (45.5) %
  Diarrhea, No. of patients: 10
  Interstitial lung disease, % of patients: (4.5) %
  Interstitial lung disease, No. of patients: 1
  Paronychia, % of patients: (54.5) %
  Paronychia, No. of patients: 12
[9]
  Anorexia, % of patients: (13.6) %
  Anorexia, No. of patients: 3
  Any adverse events, % of patients: (95.5) %
  Any adverse events, No. of patients: 21
  Creatinine increased, % of patients: (18.2) %
  Creatinine increased, No. of patients: 4
  Diarrhea, % of patients: (13.6) %
  Diarrhea, No. of patients: 3
  Interstitial lung disease, % of patients: (4.5) %
  Interstitial lung disease, No. of patients: 1
  Paronychia, % of patients: (27.3) %
  Paronychia, No. of patients: 6
ROC curve
  Sensitivity of AUC0–24 cut-off for grade ≥ 2 AEs: 51%
  Specificity of AUC0–24 cut-off for grade ≥ 2 AEs: 90%
[3]
  Half-life: 59.7 h
  Oral bioavailability: 69.8%
[4]
  Patients experiencing grade ≥ 2 adverse events: over 80%
  Patients experiencing grade ≥ 3 adverse events: > 30%
Clinical [5]
  AUC(0-t): 5530 ng·h/mL
